Drawing on ChEMBL document CHEMBL4622876, “Total Synthesis and Antimalarial Activity of Dominicin, a Cyclic Octapeptide from a Marine Sponge” (J Nat Prod, 2020), this text covers IC50 and Activity for two molecules.

pIC50: −log10 of the molar value. Where a SMILES comes first, the peptide text is derived from it.

In data set [1] the test system is Plasmodium falciparum. In words: Antiplasmodial activity against Plasmodium falciparum. It is filed as functional, organism-based.
Data set [2] concerns Plasmodium falciparum. Put plainly: Antiplasmodial activity against D-sorbitol synchronized ring stage Plasmodium falciparum 3D7 after 72 hrs. The settings on record: 3D7, 72 h. It is filed as functional, organism-based.
In data set [3] the test system is Plasmodium falciparum. Put plainly: Antiplasmodial activity against D-sorbitol synchronized ring stage chloroquine/mefloquine/pyrimethamine-resistant Plasmodium falciparum Dd2 after 72 hrs. The conditions noted are these: Dd2, 72 h. In kind it is functional, organism-based.
Data set [4] deals with Erythrocyte. In words: Hemolytic activity in human RBC assessed as release of hemoglobin at 0.78 nM to 26 uM incubated for 72 hrs. In kind it is ADME, cell-based. The settings on record: 0.00078 µM.

For orientation: pIC50 means −log10 of the IC50, conventionally taken in molar units. With `C[C@@H](O)[C@@H]1NC(=O)CNC(=O)[C@H](Cc2ccccc2)NC(=O)[C@H](Cc2ccccc2)NC(=O)CNC(=O)[C@H](Cc2ccccc2)NC(=O)[C@H](Cc2ccccc2)NC1=O` (cyclo(FFGFFGT)), the pIC50 in data set [1] was 5.66.

As to `CC[C@H](C)[C@@H]1NC(=O)[C@H]([C@@H](C)CC)NC(=O)[C@H]([C@@H](C)CC)NC(=O)[C@@H]2CCCN2C(=O)[C@H]([C@@H](C)O)NC(=O)[C@@H]2CCCN2C(=O)[C@@H]2CCCN2C(=O)[C@H](CC(C)C)NC1=O` (cyclo(IIILPPTP)), the pIC50 in data set [2] is 5.44; in data set [3] it was 5.74. Further, in data set [4], the Activity result is recorded as “Non-Toxic”.
